Experimental data reported in ChEMBL document CHEMBL3885861, “Open TG-GATES”.

Species: Rattus norvegicus
Experiment: Open TG-GATES - Regimen: Daily Repeat
Assay type: toxicity, organism-based, Sprague-Dawley
Design: regimen Daily Repeat, gender Male, age 6 weeks
Conditions: in vivo, po, 0 mg/kg, […], route gavage, dose level Control; for KIDNEY_L / KIDNEY_R / KIDNEY_TOTAL: tissue Kidney; for LIVER: tissue Liver; for ALP / ALT / AST / BUN / CRE / Ca / Cl / DBIL / GLC / IP / K / LDH / Na / PL / RALB / TBIL / TC / TG / TP / gamma-GTP: tissue Plasma

Compound: C1CCC(C(CC2CCCCN2)C2CCCCC2)CC1 (configuration not stated) [PERHEXILINE]
- Lym (tissue Blood, time 28 day): 81.8%
- MCHC (tissue Blood, time 28 day): 35.2%
- MCV (tissue Blood, time 28 day): 61.3 fL
- Mono (tissue Blood, time 28 day): 1.4%
- Neu (tissue Blood, time 28 day): 15%
- PT (tissue Blood, time 28 day): 16.1 s
- Plat (tissue Blood, time 28 day): 118.5 x10_4/uL
- RBC (tissue Blood, time 28 day): 629 x10_4/ul
- Ret (tissue Blood, time 28 day): 5.6%
- WBC (tissue Blood, time 28 day): 110.4 x10_2/uL
- KIDNEY_L (time 7 day): 1.1 g
- KIDNEY_R (time 7 day): 1.1 g
- KIDNEY_TOTAL (time 7 day): 2.2 g
- KIDNEY_L (time 14 day): 1.1 g
- KIDNEY_R (time 14 day): 1.1 g
- KIDNEY_TOTAL (time 14 day): 2.3 g
- KIDNEY_L (time 28 day): 1.2 g
- KIDNEY_R (time 28 day): 1.2 g
- KIDNEY_TOTAL (time 28 day): 2.5 g
- LIVER (time 7 day): 11.8 g
- LIVER (time 14 day): 12.3 g
- LIVER (time 28 day): 12.9 g
- ALP (time 7 day): 1691 IU/L
- ALT (time 7 day): 38 IU/L
- AST (time 7 day): 67.6 IU/L
- BUN (time 7 day): 18.6 mg/dL
- CRE (time 7 day): 0.2 mg/dL
- Ca (time 7 day): 10.5 mg/dL
- Cl (time 7 day): 106.6 meq/L
- DBIL (time 7 day): 0.002 mg/dL
- GLC (time 7 day): 190.4 mg/dL
- IP (time 7 day): 6.8 mg/dL
- K (time 7 day): 4.1 meq/L
- LDH (time 7 day): 174.2 IU/L
- Na (time 7 day): 143.6 meq/L
- PL (time 7 day): 152.6 mg/dL
- RALB (time 7 day): 3.1 g/dL
- TBIL (time 7 day): 0.014 mg/dL
- TC (time 7 day): 79.8 mg/dL
- TG (time 7 day): 101 mg/dL
- TP (time 7 day): 5.8 g/dL
- gamma-GTP (time 7 day): 1.6 IU/L
- ALP (time 14 day): 1487.8 IU/L
- ALT (time 14 day): 39.2 IU/L
- AST (time 14 day): 71.8 IU/L
- BUN (time 14 day): 19 mg/dL
- CRE (time 14 day): 0.2 mg/dL
- Ca (time 14 day): 10.2 mg/dL
- Cl (time 14 day): 107 meq/L
- DBIL (time 14 day): 0 mg/dL
- GLC (time 14 day): 192 mg/dL
- IP (time 14 day): 6.1 mg/dL
- K (time 14 day): 4.2 meq/L
- LDH (time 14 day): 180 IU/L
- Na (time 14 day): 143.2 meq/L
- PL (time 14 day): 134 mg/dL
- RALB (time 14 day): 3.2 g/dL
- TBIL (time 14 day): 0.005 mg/dL
- TC (time 14 day): 59 mg/dL
- TG (time 14 day): 131.5 mg/dL
- TP (time 14 day): 5.8 g/dL
- gamma-GTP (time 14 day): 1 IU/L
- ALP (time 28 day): 1236.4 IU/L
- ALT (time 28 day): 34.4 IU/L
- AST (time 28 day): 60 IU/L
- BUN (time 28 day): 17.8 mg/dL
- CRE (time 28 day): 0.2 mg/dL
- Ca (time 28 day): 10.1 mg/dL
- Cl (time 28 day): 108.6 meq/L
- DBIL (time 28 day): 0 mg/dL
- GLC (time 28 day): 204.2 mg/dL
- IP (time 28 day): 5.6 mg/dL
- K (time 28 day): 4.2 meq/L
- LDH (time 28 day): 148.4 IU/L
- Na (time 28 day): 143.6 meq/L
- PL (time 28 day): 129.6 mg/dL
- RALB (time 28 day): 3 g/dL
- TBIL (time 28 day): 0.008 mg/dL
- TC (time 28 day): 63 mg/dL
- TG (time 28 day): 92.8 mg/dL
- TP (time 28 day): 6 g/dL
- gamma-GTP (time 28 day): 1.4 IU/L
